In brackets after ≈: the same amount, converted by molar mass.
How the values were obtained:
Relaxin receptor 1 [1] = target: T1, Relaxin receptor 1 (Homo sapiens, UniProt Q9HBX9); assay: Agonist activity at human RXFP1 expressed in T-Rex-CHO-K1 cells assessed as stimulation of cAMP production incubated for 45 mins by HTRF assay; type: functional, cell-based
T1 sequence (Q9HBX9 whole entry): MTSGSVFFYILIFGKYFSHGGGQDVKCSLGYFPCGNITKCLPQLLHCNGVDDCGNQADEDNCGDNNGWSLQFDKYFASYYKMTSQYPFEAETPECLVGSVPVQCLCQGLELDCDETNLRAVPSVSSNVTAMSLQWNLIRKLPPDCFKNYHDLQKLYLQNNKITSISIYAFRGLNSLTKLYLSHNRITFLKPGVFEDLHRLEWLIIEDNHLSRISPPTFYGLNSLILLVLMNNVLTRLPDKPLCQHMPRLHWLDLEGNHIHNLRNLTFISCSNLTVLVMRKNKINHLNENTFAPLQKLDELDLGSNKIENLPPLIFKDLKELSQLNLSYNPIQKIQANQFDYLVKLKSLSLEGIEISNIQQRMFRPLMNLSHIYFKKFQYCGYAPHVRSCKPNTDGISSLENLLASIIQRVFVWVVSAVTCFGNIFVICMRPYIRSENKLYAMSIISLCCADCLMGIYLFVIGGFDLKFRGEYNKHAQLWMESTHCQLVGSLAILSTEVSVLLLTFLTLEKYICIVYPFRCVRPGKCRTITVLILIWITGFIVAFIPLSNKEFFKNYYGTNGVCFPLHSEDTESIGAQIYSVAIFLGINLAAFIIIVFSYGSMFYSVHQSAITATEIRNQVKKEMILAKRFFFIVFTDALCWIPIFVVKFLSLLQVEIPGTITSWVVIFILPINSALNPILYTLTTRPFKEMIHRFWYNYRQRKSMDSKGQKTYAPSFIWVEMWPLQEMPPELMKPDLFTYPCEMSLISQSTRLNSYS

[2] = Metabolic stability in cryopreserved human hepatocytes assessed as intrinsic clearance measured per 10^6 cells at 1 uM after 120 mins by LC-MS/MS analysis; type: ADME, cell-based, Hepatocyte; conditions: hepatocytes, 2 h, 1 µM
[3] = Cytotoxicity against human HepG2 cells cultured under glucose condition assessed as reduction in cell viability; type: toxicity, cell-based
[4] = target: Voltage-gated inwardly rectifying potassium channel KCNH2 (Homo sapiens, UniProt Q12809); assay: Inhibition of human ERG by automated electrophysiology recording; type: toxicity
Voltage-gated inwardly rectifying potassium channel KCNH2, sequence (Q12809 whole entry): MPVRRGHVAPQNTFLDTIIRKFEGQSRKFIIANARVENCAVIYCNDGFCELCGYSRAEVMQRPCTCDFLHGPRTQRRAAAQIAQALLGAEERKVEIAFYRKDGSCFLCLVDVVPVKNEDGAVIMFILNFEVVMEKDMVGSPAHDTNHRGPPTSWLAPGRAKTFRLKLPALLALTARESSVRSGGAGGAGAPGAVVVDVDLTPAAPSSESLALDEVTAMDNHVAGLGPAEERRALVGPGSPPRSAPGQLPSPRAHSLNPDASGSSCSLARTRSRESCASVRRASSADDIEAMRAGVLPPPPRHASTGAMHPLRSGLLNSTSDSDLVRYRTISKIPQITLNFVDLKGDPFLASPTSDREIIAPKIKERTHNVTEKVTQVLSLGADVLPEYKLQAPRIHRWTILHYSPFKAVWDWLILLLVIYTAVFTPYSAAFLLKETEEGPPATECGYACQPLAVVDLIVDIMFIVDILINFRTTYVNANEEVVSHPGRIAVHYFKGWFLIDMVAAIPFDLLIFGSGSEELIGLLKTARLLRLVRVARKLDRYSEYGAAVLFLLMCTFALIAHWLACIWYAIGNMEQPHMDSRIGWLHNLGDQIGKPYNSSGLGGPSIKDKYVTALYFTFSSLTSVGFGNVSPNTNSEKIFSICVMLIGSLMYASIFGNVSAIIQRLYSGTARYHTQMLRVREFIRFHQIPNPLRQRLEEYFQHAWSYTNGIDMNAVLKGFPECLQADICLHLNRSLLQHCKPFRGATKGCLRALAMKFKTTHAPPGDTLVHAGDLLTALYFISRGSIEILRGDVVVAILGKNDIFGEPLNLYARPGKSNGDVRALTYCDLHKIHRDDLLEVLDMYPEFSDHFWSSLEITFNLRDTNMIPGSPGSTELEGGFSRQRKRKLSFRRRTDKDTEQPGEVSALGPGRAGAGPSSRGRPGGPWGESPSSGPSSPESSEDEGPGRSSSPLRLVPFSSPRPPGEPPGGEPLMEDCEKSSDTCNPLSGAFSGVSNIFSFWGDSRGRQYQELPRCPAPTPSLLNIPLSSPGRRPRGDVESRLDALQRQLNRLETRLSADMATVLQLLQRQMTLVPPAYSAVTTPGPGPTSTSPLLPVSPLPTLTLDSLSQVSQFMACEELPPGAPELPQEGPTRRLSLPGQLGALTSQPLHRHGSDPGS

[5] = target: T2, A-type voltage-gated potassium channel KCND3 (Homo sapiens, UniProt Q9UK17); assay: Inhibition of human Kv4.3 by automated electrophysiology recording; type: toxicity
T2 sequence (Q9UK17 whole entry): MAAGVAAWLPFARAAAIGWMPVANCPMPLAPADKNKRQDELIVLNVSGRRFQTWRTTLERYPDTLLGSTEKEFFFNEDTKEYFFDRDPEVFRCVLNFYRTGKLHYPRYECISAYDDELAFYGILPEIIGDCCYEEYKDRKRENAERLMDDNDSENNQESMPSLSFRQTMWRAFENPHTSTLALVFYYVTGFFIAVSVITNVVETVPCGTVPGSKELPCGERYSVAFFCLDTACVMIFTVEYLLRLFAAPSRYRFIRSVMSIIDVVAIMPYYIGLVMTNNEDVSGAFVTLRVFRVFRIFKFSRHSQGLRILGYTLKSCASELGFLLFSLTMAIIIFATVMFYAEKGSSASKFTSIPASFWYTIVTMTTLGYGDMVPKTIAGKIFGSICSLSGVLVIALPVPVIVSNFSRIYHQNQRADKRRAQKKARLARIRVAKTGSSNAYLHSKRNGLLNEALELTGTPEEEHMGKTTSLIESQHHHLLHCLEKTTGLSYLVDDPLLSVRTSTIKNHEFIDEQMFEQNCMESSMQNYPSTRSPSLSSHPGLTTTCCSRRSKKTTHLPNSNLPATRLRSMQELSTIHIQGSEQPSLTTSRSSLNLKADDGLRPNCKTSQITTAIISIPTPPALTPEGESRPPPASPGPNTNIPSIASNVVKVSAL

[6] = target: Lutropin-choriogonadotropic hormone receptor (Homo sapiens, UniProt P22888); assay: Agonist activity at LSHR (unknown origin) by arrestin technology based assay; type: functional
Lutropin-choriogonadotropic hormone receptor, sequence (P22888 whole entry): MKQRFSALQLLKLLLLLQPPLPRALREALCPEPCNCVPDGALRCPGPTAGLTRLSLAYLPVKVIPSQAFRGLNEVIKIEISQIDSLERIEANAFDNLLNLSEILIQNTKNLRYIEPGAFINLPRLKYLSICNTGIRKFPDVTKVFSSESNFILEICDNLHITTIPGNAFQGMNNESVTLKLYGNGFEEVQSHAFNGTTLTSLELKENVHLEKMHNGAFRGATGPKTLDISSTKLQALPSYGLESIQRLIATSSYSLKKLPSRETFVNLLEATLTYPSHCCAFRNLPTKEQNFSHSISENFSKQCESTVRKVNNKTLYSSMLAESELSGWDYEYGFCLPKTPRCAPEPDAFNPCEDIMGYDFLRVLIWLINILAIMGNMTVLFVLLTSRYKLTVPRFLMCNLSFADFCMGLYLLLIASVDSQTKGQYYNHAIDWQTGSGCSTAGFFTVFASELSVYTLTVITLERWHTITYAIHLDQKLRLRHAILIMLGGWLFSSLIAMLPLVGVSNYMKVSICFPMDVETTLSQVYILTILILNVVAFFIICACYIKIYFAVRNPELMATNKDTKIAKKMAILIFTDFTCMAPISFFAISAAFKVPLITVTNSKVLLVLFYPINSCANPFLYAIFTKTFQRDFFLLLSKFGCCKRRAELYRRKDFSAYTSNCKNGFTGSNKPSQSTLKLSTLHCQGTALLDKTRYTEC

Relaxin receptor 1 [7] = target: T3, Relaxin receptor 1 (Rattus norvegicus, UniProt Q6R6I6); assay: Agonist activity at rat RXFP1 expressed in T-Rex-CHO-K1 cells assessed as stimulation of cAMP production incubated for 60 mins by HTRF assay; type: functional, cell-based
T3 sequence (Q6R6I6 whole entry): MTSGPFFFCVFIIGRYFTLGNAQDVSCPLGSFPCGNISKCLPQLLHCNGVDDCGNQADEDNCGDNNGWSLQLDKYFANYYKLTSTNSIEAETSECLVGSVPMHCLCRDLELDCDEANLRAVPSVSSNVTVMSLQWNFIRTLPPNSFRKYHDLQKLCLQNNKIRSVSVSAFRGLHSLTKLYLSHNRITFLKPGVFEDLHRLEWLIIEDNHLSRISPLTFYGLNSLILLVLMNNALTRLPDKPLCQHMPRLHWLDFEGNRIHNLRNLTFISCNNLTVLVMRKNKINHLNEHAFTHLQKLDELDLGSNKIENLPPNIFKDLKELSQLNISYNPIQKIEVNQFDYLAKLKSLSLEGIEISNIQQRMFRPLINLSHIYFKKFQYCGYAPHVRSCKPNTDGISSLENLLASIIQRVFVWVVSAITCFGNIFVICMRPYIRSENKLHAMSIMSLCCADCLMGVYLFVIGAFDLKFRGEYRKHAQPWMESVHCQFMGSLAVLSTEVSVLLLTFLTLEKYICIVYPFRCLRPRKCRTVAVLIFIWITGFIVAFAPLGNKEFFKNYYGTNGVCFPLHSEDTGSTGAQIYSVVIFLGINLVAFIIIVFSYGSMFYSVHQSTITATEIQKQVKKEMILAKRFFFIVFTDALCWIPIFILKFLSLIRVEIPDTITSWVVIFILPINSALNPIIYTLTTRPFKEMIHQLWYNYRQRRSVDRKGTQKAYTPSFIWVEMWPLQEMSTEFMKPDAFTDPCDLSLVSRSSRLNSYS

[8] = target: T4, Relaxin receptor 1 (Rattus norvegicus) (UniProt Q6R6I6); assay: Agonist activity at rat RXFP1 expressed in T-Rex-CHO-K1 cells assessed as stimulation of cAMP production by measuring maximal efficacy incubated for 60 mins by HTRF assay relative to control; type: functional, cell-based; conditions: filed as agonist
T4 sequence (whole entry): T3 sequence (Q6R6I6 whole entry)

[9] = Metabolic stability in Han Wistar rat hepatocytes assessed as intrinsic clearance measured per 10^6 cells at 1 uM after 120 mins by LC-MS/MS analysis; type: ADME, cell-based, Hepatocyte; conditions: read-out: CLH
[10] = Metabolic stability in Han Wistar rat hepatocytes assessed as unbound intrinsic clearance measured […] at 1 uM after 120 mins by LC-MS/MS analysis; type: ADME, cell-based, Hepatocyte; conditions: 2 h
[11] = Volume of distribution at steady state in Han Wistar rat at 0.73 micromol/kg, iv by LC-MS/MS analysis; type: ADME, organism-based; conditions: in vivo, dose 0.73 µmol/kg, read-out: Vdss
[12] = Solubility of compound in FaSSIF at pH 6.5; type: ADME
[13] = target: T4, Relaxin receptor 1 (Rattus norvegicus); assay: Agonist activity at rat RXFP1 expressed in T-Rex-CHO-K1 cells assessed as stimulation of cAMP production by measuring unbound concentration incubated for 60 mins by HTRF assay; type: functional, cell-based; conditions: filed as agonist

Structure (SMILES): COc1cc(F)c(O[C@H]2CC[C@@](C)(C(=O)O)CC2)cc1C(=O)N[C@@H]1[C@H]2CC[C@H](C2)[C@@H]1C(=O)Nc1ccc(F)c(S(F)(F)(F)(F)F)c1
- EC50 (Relaxin receptor 1 [1]): 0.398 nM
- CLH [2]: 21 µL/min/1e6 cells
- IC50 [3]: 68 µM
- IC50 [4]: > 39 µM
- IC50 [5]: > 33 µM
- EC50 [6]: 46 µM
- EC50 (Relaxin receptor 1 [7]): 200 nM
- Emax [8]: 139%
- hepatocyte CLint at 1 µM [9]: 24 µL/min/1e6 cells
- CL free [10]: 2.4 µL/min
- Vd [11]: 2.3 L/kg
- solubility [12]: 6.3 µM (≈ 4.3 µg/mL)
- fEC50 [13]: 17 nM

Source: ChEMBL document CHEMBL5518235, “Identification of Novel Series of Potent and Selective Relaxin Family Peptide Receptor 1 (RXFP1) Agonists” (J Med Chem, 2024)
